# Measurements from ChEMBL document CHEMBL5154832, “Design, Synthesis, and Proof-of-Concept of Triple-Site Inhibitors against Aminoacyl-tRNA Synthetases” (J Med Chem, 2022).
# Assays:
# [1] = target: T1, Threonine--tRNA ligase (Salmonella enterica) (UniProt A0A3F3IEK2); test: Binding affinity to recombinant salmonella enterica threonyl-tRNA synthetase assessed as change in melting temperature at 0.1 mM by fluorescence-based thermal shift assay
# T1 sequence (whole entry): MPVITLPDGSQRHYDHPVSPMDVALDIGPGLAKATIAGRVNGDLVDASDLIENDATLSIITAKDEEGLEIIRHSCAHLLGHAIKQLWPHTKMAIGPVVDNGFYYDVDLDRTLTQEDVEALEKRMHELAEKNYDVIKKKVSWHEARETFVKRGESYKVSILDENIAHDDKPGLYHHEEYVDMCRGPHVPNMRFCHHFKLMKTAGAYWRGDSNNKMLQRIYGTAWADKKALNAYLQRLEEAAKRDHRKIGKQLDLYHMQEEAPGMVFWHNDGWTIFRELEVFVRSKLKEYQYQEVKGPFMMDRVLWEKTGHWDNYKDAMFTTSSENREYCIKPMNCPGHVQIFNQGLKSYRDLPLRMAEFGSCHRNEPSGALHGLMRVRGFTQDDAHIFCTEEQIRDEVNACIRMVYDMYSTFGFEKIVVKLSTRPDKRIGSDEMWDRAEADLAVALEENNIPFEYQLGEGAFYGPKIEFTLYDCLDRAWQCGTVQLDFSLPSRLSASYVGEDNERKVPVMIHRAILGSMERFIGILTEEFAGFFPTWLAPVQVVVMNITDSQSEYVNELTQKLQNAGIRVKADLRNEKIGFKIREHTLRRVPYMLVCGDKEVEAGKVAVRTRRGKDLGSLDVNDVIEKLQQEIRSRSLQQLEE
# [2] = target: T1, Threonine--tRNA ligase (Salmonella enterica); test: Inhibition of recombinant salmonella enterica threonyl-tRNA synthetase assessed as reduction in enzyme activity at 10 uM incubated for 20 min by Kinase Glo luminescence assay relative to control
# Salmonella enterica = test: Antibacterial activity against Salmonella enterica 87 strain assessed as inhibition of bacterial growth incubated for 8 hrs by CLSI protocol based microdilution assay; format: functional
# Escherichia coli [3] = test: Antibacterial activity against Escherichia coli ATCC 25922 strain assessed as inhibition of bacterial growth incubated for 8 hrs by CLSI protocol based microdilution assay; format: functional
# Pseudomonas aeruginosa = test: Antibacterial activity against Pseudomonas aeruginosa ATCC27853 strain assessed as inhibition of bacterial growth incubated for 8 hrs by CLSI protocol based microdilution assay; format: functional
# Escherichia coli [4] = test: Antibacterial activity against Escherichia coli acraB strain assessed as inhibition of bacterial growth incubated for 8 hrs by CLSI protocol based microdilution assay; format: functional
# Staphylococcus aureus [5] = test: Antibacterial activity against Staphylococcus aureus MRSA R3708 strain assessed as inhibition of bacterial growth incubated for 8 hrs by CLSI protocol based microdilution assay; format: functional
# Staphylococcus aureus [6] = test: Antibacterial activity against Staphylococcus aureus ATCC 29213 strain assessed as inhibition of bacterial growth incubated for 8 hrs by CLSI protocol based microdilution assay; format: functional
# Threonine--tRNA ligase = target: T2, Threonine--tRNA ligase (Salmonella enterica, UniProt A0A3F3IEK2); test: Inhibition of recombinant salmonella enterica threonyl-tRNA synthetase assessed as reduction in enzyme activity incubated for 20 min by Kinase Glo luminescence assay
# T2 sequence (A0A3F3IEK2 whole entry): T1 sequence (whole entry)
# Enterococcus faecalis = test: Antibacterial activity against Enterococcus faecalis ATCC 29212 strain assessed as inhibition of bacterial growth incubated for 8 hrs by CLSI protocol based microdilution assay; format: functional
Compound,ΔTm [1] [°C],inhibition [2] [%],MIC (Salmonella enterica) [µg/mL],MIC (Escherichia coli [3]) [µg/mL],MIC (Pseudomonas aeruginosa) [µg/mL],MIC (Escherichia coli [4]) [µg/mL],MIC (Staphylococcus aureus [5]) [µg/mL],MIC (Staphylococcus aureus [6]) [µg/mL],IC50 (Threonine--tRNA ligase) [nM],MIC (Enterococcus faecalis) [µg/mL]
C[C@@H](O)[C@H](N)C(=O)N[C@H](CNC(=O)CCn1cnc2cc(Br)c(Cl)cc2c1=O)c1cccc(-c2ccc3c(N)ncnc3c2)c1,29.4,57,–,–,–,–,–,–,6630,–
C[C@@H](O)[C@H](N)C(=O)N[C@@H](CNC(=O)CCn1cnc2cc(Cl)c(Cl)cc2c1=O)c1cccc(-c2ccccc2)c1,23,> 99,≥ 128,≥ 128,16,16,16,32,520,32
CN[C@H](CC(C)C)C(=O)N[C@H]1C(=O)N[C@@H](CC(N)=O)C(=O)N[C@H]2C(=O)N[C@H]3C(=O)N[C@H](C(=O)N[C@H](C(=O)O)c4cc(O)cc(O)c4-c4cc3ccc4O)[C@H](O)c3ccc(c(Cl)c3)Oc3cc2cc(c3O[C@@H]2O[C@H](CO)[C@@H](O)[C@H](O)[C@H]2O[C@H]2C[C@](C)(N)[C@H](O)[C@H](C)O2)Oc2ccc(cc2Cl)[C@H]1O [VANCOMYCIN],–,–,–,–,–,–,–,–,–,2
C[C@@H](O)[C@H](N)C(=O)N[C@H](CNC(=O)CCn1cnc2cc(Cl)c(F)cc2c1=O)c1cccc(-c2ccccc2)c1,12.1,11,–,–,–,–,–,–,–,–
C[C@@H](O)[C@H](N)C(=O)NS(=O)(=O)c1cccc(-c2ccc3[nH]ncc3c2)c1,29.9,> 99,≥ 128,≥ 128,≥ 128,≥ 128,≥ 128,≥ 128,190,≥ 128
CN[C@H](C(=O)N[C@@H](CNC(=O)CCn1cnc2cc(Cl)c(F)cc2c1=O)c1cccc(-c2ccccc2)c1)[C@@H](C)O,22.1,73,≥ 128,≥ 128,16,16,32,32,2100,32
CN[C@H](C(=O)N[C@H](CNC(=O)CCn1cnc2cc(Cl)c(F)cc2c1=O)c1cccc(-c2ccccc2)c1)[C@@H](C)O,7.2,5,–,–,–,–,–,–,–,–
C[C@@H](O)[C@H](N)C(=O)N(CCCCOC(=O)Cn1cnc2cc(Br)c(Cl)cc2c1=O)Cc1cccc(-c2ccc3c(c2)CNC3=O)c1,0,–,–,–,–,–,–,–,–,–
C[C@@H](O)[C@H](N)C(=O)N[C@@H](CNC(=O)CCn1cnc2cc(Cl)c(Cl)cc2c1=O)c1cccc(-c2ccc(Cl)cc2)c1,20.1,75,≥ 128,≥ 128,4,8,4,4,3290,4
C[C@@H](O)[C@H](N)C(=O)N[C@@H](CNC(=O)CCn1cnc2cc(Cl)c(F)cc2c1=O)c1cccc(-c2ccccc2)c1,22.6,> 99,≥ 128,≥ 128,16,32,32,16,550,32
C[C@@H](O)[C@H](N)C(=O)N(CCCOC(=O)Cn1cnc2cc(Br)c(Cl)cc2c1=O)Cc1cccc(-c2ccc3c(c2)CNC3=O)c1,0,–,–,–,–,–,–,–,–,–
C[C@@H](O)[C@H](N)C(=O)N(CCC(=O)N1CCN(CCn2cnc3cc(Br)c(Cl)cc3c2=O)CC1)Cc1cccc(-c2ccc3c(c2)CNC3=O)c1,0,–,–,–,–,–,–,–,–,–
C[C@@H](O)[C@H](N)C(=O)N(CCCCCCn1cnc2cc(Br)c(Cl)cc2c1=O)Cc1cccc(-c2ccc3c(c2)CNC3=O)c1,23.5,75,≥ 128,≥ 128,64,64,64,64,5680,64
C[C@@H](O)[C@@H](N)C(=O)N(CCCCCn1cnc2cc(Br)c(Cl)cc2c1=O)S(=O)(=O)c1cccc(-c2ccc3c(c2)CNC3=O)c1,6.2,16,–,–,–,–,–,–,–,–
C[C@@H](O)[C@H](N)C(=O)N[C@H](CNC(=O)CCn1cnc2cc(Cl)c(Cl)cc2c1=O)c1cccc(-c2ccccc2)c1,5,–,–,–,–,–,–,–,–,–
C[C@@H](O)[C@H](N)C(=O)N[C@@H](CNC(=O)CCn1cnc2cc(Cl)c(Cl)cc2c1=O)c1cccc(-c2ccc(C(F)(F)F)cc2)c1,25.9,> 99,≥ 128,≥ 128,4,8,4,2,580,4
C[C@@H](O)[C@H](N)C(=O)N(CCCC(=O)NCCn1cnc2cc(Br)c(Cl)cc2c1=O)Cc1cccc(-c2ccc3c(c2)CNC3=O)c1,27.8,84,≥ 128,≥ 128,64,64,≥ 128,≥ 128,2990,64
CC1(C)S[C@@H]2[C@H](NC(=O)[C@H](N)c3ccccc3)C(=O)N2[C@H]1C(=O)O [AMPICILLIN],–,–,1,1,1,1,–,–,–,–

# Second part, the molecule after the results:
ΔTm [1] [°C],inhibition [2] [%],MIC (Salmonella enterica) [µg/mL],MIC (Escherichia coli [3]) [µg/mL],MIC (Pseudomonas aeruginosa) [µg/mL],MIC (Escherichia coli [4]) [µg/mL],MIC (Staphylococcus aureus [5]) [µg/mL],MIC (Staphylococcus aureus [6]) [µg/mL],IC50 (Threonine--tRNA ligase) [nM],MIC (Enterococcus faecalis) [µg/mL],Compound
4.8,–,–,–,–,–,–,–,–,–,C[C@@H](O)[C@H](N)C(=O)N[C@H](CNC(=O)CCn1cnc2cc(Br)c(Cl)cc2c1=O)c1cccc(-c2ccc3ccccc3c2)c1
32.8,> 99,≥ 128,≥ 128,≥ 128,≥ 128,≥ 128,≥ 128,103,≥ 128,C[C@@H](O)[C@H](N)C(=O)N[C@@H](CNC(=O)CCn1cnc2cc(Br)c(Cl)cc2c1=O)c1cccc(-c2ccc3c(c2)CNC3=O)c1
22.6,91,≥ 128,≥ 128,32,16,32,32,1620,32,C[C@@H](O)[C@H](N)C(=O)N[C@@H](CNC(=O)CCn1cnc2cc(Br)c(Cl)cc2c1=O)c1cccc(-c2ccc3[nH]ccc3c2)c1
20.2,85,≥ 128,≥ 128,4,8,4,4,2100,4,C[C@@H](O)[C@H](N)C(=O)N[C@@H](CNC(=O)CCn1cnc2cc(Br)c(Cl)cc2c1=O)c1cccc(-c2ccc3ccccc3c2)c1
17.9,86,–,–,–,–,–,–,1860,–,C[C@@H](O)[C@H](N)C(=O)N[C@H](CNC(=O)CCn1cnc2cc(Br)c(Cl)cc2c1=O)c1cccc(-c2ccc3c(c2)CNC3=O)c1
20.1,82,≥ 128,≥ 128,16,32,32,32,3710,32,C[C@@H](O)[C@H](N)C(=O)N[C@@H](CNC(=O)CCn1cnc2cc(Br)c(Cl)cc2c1=O)c1cccc(-c2ccccc2)c1
35.2,> 99,≥ 128,≥ 128,≥ 128,≥ 128,≥ 128,≥ 128,480,≥ 128,C[C@@H](O)[C@H](N)C(=O)N[C@@H](CNC(=O)CCn1cnc2cc(Br)c(Cl)cc2c1=O)c1cccc(-c2ccc3c(N)ncnc3c2)c1
10.2,30,–,–,–,–,–,–,–,–,C[C@@H](O)[C@H](N)C(=O)N[C@H](CNC(=O)CCn1cnc2cc(Br)c(Cl)cc2c1=O)c1cccc(-c2ccc3[nH]ncc3c2)c1
28,> 99,≥ 128,≥ 128,≥ 128,≥ 128,≥ 128,≥ 128,194,≥ 128,C[C@@H](O)[C@H](N)C(=O)N[C@@H](CNC(=O)CCn1cnc2cc(Br)c(Cl)cc2c1=O)c1cccc(-c2ccc3[nH]ncc3c2)c1
8.4,24,–,–,–,–,–,–,–,–,C[C@@H](O)[C@H](N)C(=O)N[C@H](CNC(=O)CCn1cnc2cc(Br)c(Cl)cc2c1=O)c1cccc(-c2ccc3[nH]ccc3c2)c1
7,8,–,–,–,–,–,–,–,–,C[C@@H](O)[C@H](N)C(=O)N[C@H](CNC(=O)CCn1cnc2cc(Br)c(Cl)cc2c1=O)c1cccc(-c2ccccc2)c1
